Test results: ChEMBL document CHEMBL1221295 (Bioorg Med Chem, 2010)

What was measured:
[1] = molecular target: T1, Melatonin receptor type 1A (Homo sapiens, UniProt P48039); experiment: Displacement of [125I]iodomelatonin from human cloned MT1 receptor expressed in […] NIH3T3 cells after 90 mins; type: cell-based
[2] = molecular target: T2, Melatonin receptor type 1B (Homo sapiens, UniProt P49286); experiment: Displacement of [125I]iodomelatonin from human cloned MT2 receptor expressed in […] NIH3T3 cells after 90 mins; type: cell-based
T2 sequence (P49286 whole entry): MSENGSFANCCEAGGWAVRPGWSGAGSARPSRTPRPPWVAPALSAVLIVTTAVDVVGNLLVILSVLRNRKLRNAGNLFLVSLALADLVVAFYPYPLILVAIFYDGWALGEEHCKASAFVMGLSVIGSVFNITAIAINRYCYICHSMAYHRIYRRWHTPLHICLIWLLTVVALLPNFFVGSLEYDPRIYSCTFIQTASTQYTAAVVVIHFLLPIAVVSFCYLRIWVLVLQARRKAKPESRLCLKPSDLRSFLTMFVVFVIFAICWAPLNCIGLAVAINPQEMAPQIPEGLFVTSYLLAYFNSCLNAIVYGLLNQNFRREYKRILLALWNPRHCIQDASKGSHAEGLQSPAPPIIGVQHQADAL

[3] = molecular target: T1, Melatonin receptor type 1A; experiment: Intrinsic activity at human cloned MT1 receptor expressed in […] NIH3T3 cells assessed as increase of [35S]GTPgammaS binding relative to melatonin; type: functional, cell-based
[4] = molecular target: T3, Melatonin receptor type 1B (Homo sapiens) (UniProt P49286); experiment: Intrinsic activity at human cloned MT2 receptor expressed in […] NIH3T3 cells assessed as increase of [35S]GTPgammaS binding relative to melatonin; type: functional, cell-based
T3 sequence (whole entry): T2 sequence (P49286 whole entry)

T1 sequence (P48039 whole entry): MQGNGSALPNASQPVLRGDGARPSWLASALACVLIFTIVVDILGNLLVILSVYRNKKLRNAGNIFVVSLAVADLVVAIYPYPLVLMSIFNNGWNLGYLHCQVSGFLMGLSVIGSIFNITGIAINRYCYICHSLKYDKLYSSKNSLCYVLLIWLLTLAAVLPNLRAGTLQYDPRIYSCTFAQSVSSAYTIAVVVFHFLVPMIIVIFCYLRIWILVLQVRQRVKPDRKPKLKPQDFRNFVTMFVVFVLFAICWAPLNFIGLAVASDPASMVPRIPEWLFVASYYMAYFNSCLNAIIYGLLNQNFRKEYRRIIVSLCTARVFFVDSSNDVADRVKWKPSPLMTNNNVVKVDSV

Compound	Ki [1] [nM]	Ki [2] [nM]	Ratio [3]	Ratio [4]
COc1cccc(O[C@@H](C)CNC(C)=O)c1	1.7	4.68	1.01	1.09
CC(=O)N[C@@H](C)CSc1ccccc1	3720	4370	-0.07	0.25
COc1cccc(OC[C@H](C)NC(C)=O)c1	347	302	0.75	0.8
CCCC(=O)NC[C@@H](C)Oc1cccc(OC)c1	81.3	67.6	1.06	0.86
CC(=O)N[C@@H](C)COc1ccccc1	20900	4570	0.05	0.26
COc1cccc(O[C@@H](C)CNC(=O)C2CC2)c1	0.724	4.37	1.01	1.26
COc1cccc(SCC(C)NC(C)=O)c1 (stereo unspecified)	12000	1320	–	–
COc1ccccc1OCCNC(C)=O	37200	6610	0.23	0.22
CCCC(=O)NCC(C)Sc1cccc(OC)c1 (stereo unspecified)	9.12	5.01	1.02	0.99
CCCC(=O)NC[C@H](C)Sc1cccc(OC)c1	3.89	6.03	0.99	0.96
CCCC(=O)NC[C@H](C)Oc1cccc(OC)c1	3.09	2.75	1.01	1.07
COc1ccccc1SCCNC(C)=O	3630	501	0.27	0.56
CC(=O)NCCOc1ccccc1	11500	5500	0.31	0.5
COc1cccc(OCCNC(C)=O)c1	40.7	67.6	0.81	0.8
CC(=O)NC(C)CSc1ccccc1 (stereo unspecified)	31600	6760	0	0.2
COc1cccc(S[C@@H](C)CNC(C)=O)c1	5.75	7.08	–	–
COc1cccc(SCCNC(C)=O)c1	55	39.8	0.85	0.81
COc1cccc(O[C@H](C)CNC(=O)C2CC2)c1	7.76	20.9	0.9	0.77
COc1ccc(OCCNC(C)=O)cc1	61700	45700	0.26	0.44
CC(=O)N[C@H](C)COc1ccccc1	63100	53700	0.17	0.11
COc1cccc(SC[C@@H](C)NC(C)=O)c1	11500	12300	0.29	0.32

Compound	Ki [1] [nM]	Ki [2] [nM]	Ratio [3]	Ratio [4]
CCCC(=O)NCC(C)Oc1cccc(OC)c1 (stereo unspecified)	4.17	3.72	1.04	1.12
CC(=O)NC(C)COc1ccccc1 (stereo unspecified)	12000	3800	0.04	0.15
COc1cccc(O[C@H](C)CNC(C)=O)c1	49	110	0.79	0.93
COc1ccc(SCCNC(C)=O)cc1	2820	2400	0.48	0.56
COc1cccc(OC[C@@H](C)NC(C)=O)c1	36300	4900	0.35	0.43
CCCC(=O)NC[C@@H](C)Sc1cccc(OC)c1	70.8	26.3	0.59	0.64
CC(=O)NCCSc1ccccc1	3800	339	0.22	0.5
COc1cccc(S[C@H](C)CNC(=O)C2CC2)c1	120	49	0.49	0.59
COc1cccc(S[C@@H](C)CNC(=O)C2CC2)c1	5.37	6.76	0.8	0.8
COc1cccc(SC(C)CNC(C)=O)c1 (stereo unspecified)	110	263	–	–
COc1cccc(OCC(C)NC(C)=O)c1 (stereo unspecified)	355	347	0.63	0.71
COc1ccccc1OC(C)CNC(C)=O (stereo unspecified)	10500	5130	0.19	0.45
COc1cccc(OC(C)CNC(C)=O)c1 (stereo unspecified)	3.63	9.55	1.01	1.01
COc1cccc(SC[C@H](C)NC(C)=O)c1	479	263	0.3	0.5
COc1cccc(SC(C)CNC(=O)C2CC2)c1 (stereo unspecified)	8.51	9.77	0.77	0.63
COc1cccc(S[C@H](C)CNC(C)=O)c1	2750	661	–	–
COc1ccc(OC(C)CNC(C)=O)cc1 (stereo unspecified)	42700	12600	0.15	0.13
CC(=O)N[C@H](C)CSc1ccccc1	74100	64600	-0.05	-0.04
COc1cccc(OC(C)CNC(=O)C2CC2)c1 (stereo unspecified)	0.933	12.9	0.91	1.02
CC(=O)NCC(C)Oc1ccccc1 (stereo unspecified)	1380	1150	0.48	0.69
